# Assay results: patent publication US11985994B2, “Sweetener and flavor compositions, methods of making and methods of use thereof” (EPC Natural Products Co., Ltd., priority 2018, dated 2024)
# Like-named read-outs stand apart in the source and are kept apart here. Residues, ends and D or L forms follow the SMILES beside them.
# How the values were obtained:
# [1] = cited from earlier work
# [2] = Sensory evaluation (smell, color, taste) of Maillard reaction samples, Examples 52, 55-63; design: species or system human
# Experimental: For evaluation of the taste profile, the samples were tested by a panel of four people. 1 trained taster tasted independently the samples first. The taster was asked to describe the taste profile and score 0-5 according to the increasing sugar likeness, bitterness, aftertaste and lingering taste profiles. The first taster was allowed to re-taste, and then make notes for the sensory attributes perceived. Afterwards, another 3 tasters tasted and the attributes were noted and discussed openly to find a suitable description. In case that more than 1 taster disagreed with the results, the tasting was repeated. In some sensory test results (above), the taste rating was expressed by “+”, which means the intensity of the factors is shown by three levels. “+” for slight, “++” for moderate and “+++” for very strong.
# All samples were assessed at 22° C. after the Maillard reaction was stopped by placing the sealed vials in an ice bath. After 20 minutes in the ice bath the sealed vials were put in a water bath set to 22° C.
# The odor/smell was assessed independently by 3 persons; the final description was agreed after discussion. […] The taste was assessed independently by 3 persons either in the original samples or after appropriate dilution to achieve relevant concentrations of sugars and steviol-glycosides (i.e. 5-9% SE); the final description was agreed after discussion.
# [3] = HPLC/DAD/MS analysis of reaction partners and MRI (Amadori) products; type: physicochemical; settings: 120 °C; for consumption in the reaction with Phe: KH2PO4 pH 7.8, 2.5 h, glucose present or not
# Experimental: Quantitative evaluation was performed using external standardization.
# [4] = Sensory evaluation (smell, color, taste) of Maillard reaction samples, Examples 52, 55-63; design: species or system human; settings: before reaction, 10 ml KH2PO4 pH 7.8 (Example 57)
# [5] = Sensory evaluation of GSGs and SGs, thaumatin, NHDC and combinations (Example 255); design: species or system human
# Experimental: 4.5 ppm Thaumatin (equivalent to 10 ppm EPCalin) was dissolved in water. Increasing amounts of NHDC (1-5 ppm) were added to the solution and the sensory properties were evaluated.
# 50 ppm (GSGs and SGs) were dissolved in water. Increasing amounts of NHDC (1-5 ppm) were added to the solution and the sensory properties were evaluated.
# 50 ppm (GSGs and SGs) and 4.5 ppm Thaumatin (equivalent to 10 ppm EPCalin) were dissolved in water. Increasing amounts of NHDC (1-5 ppm) were added to the solution and the sensory properties were evaluated.
# Sweetness intensity was rated on 5-point scale
# [6] = depends on the tested concentration compared with sucrose
# [7] = after reaction, 10 ml KH2PO4 pH 7.8, 2.5 h, 120 °C (Example 57)
# [8] = negative controls (no carbohydrate source), 10 ml glycerin/water, 100 °C, 40 minutes
# [9] = 1 ml water + 9 ml Glycerin, 1 h, 100 °C
# [10] = after reaction, 10 ml KH2PO4 pH 7.8, 2.5 h, 120 °C (Example 58)
# [11] = before reaction, 10 ml KH2PO4 pH 7.8 (Example 58)
# [12] = 1 ml water + 9 ml Glycerin, 2.0 h, 120 °C
# [13] = Table 52.3: 1 ml water + 9 ml Glycerin, 0.67 h, 100 °C
# [14] = Table 52.2: 1 ml water + 9 ml Glycerin, 0.67 h, 100 °C
molecule,measurement,setting,value
O=S(=O)([O-])NC1CCCCC1.[Na+] [sodium cyclamate],sweetness,[1]; [6],about 30 times sweeter than sucrose
O=C[C@H](O)[C@@H](O)[C@H](O)[C@H](O)C(=O)O [Glucuronic Acid],Color,[2]; [7],Deep Yellow
same,Smell,[2]; [7],burnt bread
same,Taste,[2]; [7],Bitter
same,consumption in the reaction with Phe,[3],completely consumed
"N[C@@H](CO)C(=O)O [10.5 mg Ser, Serine]",Color,[2]; [8],Slightly Yellow
same,Smell,[2]; [8],Lotus flower
same,Taste,[2]; [8],Slightly sweet
"N[C@@H](Cc1ccccc1)C(=O)O [Phe 60 mMol, Phenylalanine]",Color,[2]; [9],Slightly Yellow
same,Smell,[2]; [9],flowery/bloomy-caramel
same,Taste,[2]; [9],Sweet
"NCCCC[C@H](N)C(=O)O [14.7 mg Lys, Lysine]",Color,[2]; [8],brown
same,Smell,[2]; [8],Popcorn
same,Taste,[2]; [8],Slightly sweet
"N[C@@H](Cc1ccccc1)C(=O)O [16.5 mg Phe, Phenylalanine]",Color,[2]; [10],Slightly Yellow
same,Smell,[2]; [10],"Caramel, burnt"
same,Taste,"[2]; after reaction, after dilution 1:20 (Example 58)",Sweet
same,Color,[2]; [11],No color
same,Smell,[2]; [11],Neutral
same,Taste,"[2]; before reaction, after dilution 1:20 (Example 58)",No taste
same,Color,[2]; [8],Very Slightly
same,Smell,[2]; [8],"Bloomy, caramel"
same,Taste,[2]; [8],Slightly sweet
same,Color,[4],No color
same,Smell,[4],neutral
same,Taste,[4],No taste
"O=C[C@H](O)[C@H]1OC(=O)[C@@H](O)[C@H]1O [0.1 mMol GlucLac, Glucuronolactone]",Color,[2]; [12],Almost black
same,Intensity of Smell,[2]; [12],+++
same,Smell,[2]; [12],Burnt sugar
same,Taste,[2]; [12],Bitter
"C[C@H](N)C(=O)O [8.91 mg Ala, Alanine]",Color,[2]; [8],No color
same,Smell,[2]; [8],"Neutral, slightly Agar"
same,Taste,[2]; [8],Slightly sweet
"O=C(O)[C@@H]1CCCN1 [11.5 mg Pro, Proline]",Color,[2]; [8],Slightly Yellow
same,Smell,[2]; [8],"Neutral, slightly"
same,Taste,[2]; [8],Slightly sweet
"NCCCC[C@H](N)C(=O)O [0.1 mMol Lys, Lysine]",Color,[2]; [13],Brown
same,Smell,[2]; [13],Popcorn
same,Taste,[2]; [13],Sweet
"N[C@@H](Cc1ccc(O)cc1)C(=O)O [18.1 mg Tyr, Tyrosine]",Color,[2]; [8],No color
same,Smell,[2]; [8],neutral
same,Taste,[2]; [8],Slightly sweet
"O=C[C@H](O)[C@@H](O)[C@H](O)CO [167 mMol Xyl, Xylose]",Color,[2]; [9],No color
same,Smell,[2]; [9],neutral/meat
same,Taste,[2]; [9],Sweet
"N[C@@H](Cc1c[nH]c2ccccc12)C(=O)O [20.42 mg Try, Tryptophan]",Color,[2]; [8],Slightly Yellow
same,Smell,[2]; [8],Unpleasant (fecal)
same,Taste,[2]; [8],Slightly sweet
"N[C@@H](Cc1ccccc1)C(=O)O [3.3 mMol Phe, Phenylalanine]",Color,"[2]; Glycerin 10 ml, 100 °C, 5 min",No color
same,Smell,"[2]; Glycerin 10 ml, 100 °C, 5 min",Slightly bloomy
same,Color,"[2]; Glycerin 10 ml, 100 °C, 10 min",No color
same,Smell,"[2]; Glycerin 10 ml, 100 °C, 10 min",flowery/bloomy
same,Color,"[2]; Glycerin 10 ml, 100 °C, 20 min",Slightly Yellow
same,Smell,"[2]; Glycerin 10 ml, 100 °C, 20 min",flowery/bloomy
same,Color,"[2]; Glycerin 10 ml, 100 °C, 40 min",Yellow-slightly
same,Smell,"[2]; Glycerin 10 ml, 100 °C, 40 min",flowery/bloomy
same,Color,"[2]; Glycerin 10 ml, 1 h, 120 °C",Brown
same,Smell,"[2]; Glycerin 10 ml, 1 h, 120 °C",flowery/bloomy
"O=C[C@H](O)[C@@H](O)[C@H](O)[C@H](O)C(=O)O [0.1 mMol Gluc Acid, Glucuronic Acid]",Color,[2]; [12],Almost black
same,Intensity of Smell,[2]; [12],+++
same,Smell,[2]; [12],burnt bread
same,Taste,[2]; [12],Bitter
"CC[C@H](C)[C@H](N)C(=O)O [13.11 mg Ile, Isoleucine]",Color,[2]; [8],No color
same,Smell,[2]; [8],Coffee
same,Taste,[2]; [8],Slightly sweet
"C[C@H](N)C(=O)O [0.1 mMol Ala, Alanine]",Color,[2]; [14],No Color
"C=C1C[C@@]23CC[C@H]4[C@@](C)(CCC[C@@]4(C)C(=O)O[C@@H]4O[C@H](CO)[C@@H](O)[C@H](O)[C@H]4O)[C@@H]2CC[C@]1(O[C@@H]1O[C@H](CO)[C@@H](O)[C@H](O[C@@H]2O[C@H](CO)[C@@H](O)[C@H](O)[C@H]2O)[C@H]1O[C@@H]1O[C@H](CO)[C@@H](O)[C@H](O)[C@H]1O)C3 [0.05 mMol Reb-A, Rebaudioside A]",Color,[2]; [14],Slightly Yellow
MoneIlin,Sweetness by weight,[1]; compared to sucrose,"800-2,000"
OC[C@H]1O[C@H](O[C@]2(CCl)O[C@H](CCl)[C@@H](O)[C@@H]2O)[C@H](O)[C@@H](O)[C@H]1Cl [sucralose],sweetness,[1]; [6],about 600 times sweeter than sucrose
"N[C@@H](CS)C(=O)O [12.1 mg Cys, Cysteine]",Color,[2]; [8],Slightly Yellow
same,Smell,[2]; [8],Unpleasant (sulfur)
same,Taste,[2]; [8],Slightly sweet
"CSCC[C@H](N)C(=O)O [14.9 mg Met, Methionine]",Color,[2]; [8],Very Slightly
same,Smell,[2]; [8],Sulfuric
same,Taste,[2]; [8],Slightly sweet
O=C[C@H](O)[C@H]1OC(=O)[C@@H](O)[C@H]1O [Glucuronolactone],Color,[2]; [7],Deep Yellow
same,Smell,[2]; [7],Burnt sugar
same,Taste,[2]; [7],Bitter
same,consumption in the reaction with Phe,[3],completely consumed
"O=C[C@H](O)[C@@H](O)[C@H](O)CO [10 mmol Xyl, Xylose]",Color,"[2]; Glycerin 10 ml, 100 °C, 40 min",Slightly Yellow
same,Smell,"[2]; Glycerin 10 ml, 100 °C, 40 min",Slightly Popcorn
same,Color,"[2]; Glycerin 10 ml, 1 h, 120 °C",No color
same,Smell,"[2]; Glycerin 10 ml, 1 h, 120 °C",neutral
"O=C[C@H](O)[C@@H](O)[C@H](O)[C@H](O)C(=O)O [18 mg Glucuronic Acid, Glucuronic Acid]",Color,[4],No color
same,Smell,[4],neutral
same,Taste,[4],No taste
"COc1ccc(CCC(=O)c2c(O)cc(O[C@@H]3O[C@H](CO)[C@@H](O)[C@H](O)[C@H]3O[C@@H]3O[C@@H](C)[C@H](O)[C@@H](O)[C@H]3O)cc2O)cc1O [NHDC, Neohesperidin dihydrochalcone]",sweetness,[1]; at threshold concentrations,1500-1800 times sweeter than sugar
same,sweetness,[1]; weight-for-weight,about 340 times sweeter than sugar
same,lingering,"[5]; 4, 5 ppm added to 50 ppm GSGs and SGs and 4.5 ppm Thaumatin",boosts the lingering
same,lingering,[5]; 4 and 5 ppm added to 4.5 ppm Thaumatin in water,long lasting lingering
"O=C[C@H](O)[C@@H](O)[C@H](O)CO [Xyl, Xylose]",% degradation,"[3]; Phe + Xyl, pH = 7.0, 1.0 h",6.3%
COC(=O)[C@H](Cc1ccccc1)NC(=O)[C@@H](N)CC(=O)O [Aspartame] (H-Asp-Phe-OMe),sweetness,[1]; [6],160-200 times sweeter than sucrose
"N[C@@H](Cc1ccccc1)C(=O)O [0.1 mMol Phe, Phenylalanine]",Color,[2]; [12],Slightly Yellow
same,Intensity of Smell,[2]; [12],+
same,Smell,[2]; [12],"Caramel, burnt"
same,Taste,[2]; [12],sweet
same,Color,[2]; [14],Slightly Yellow
same,Smell,[2]; [14],"flowery/bloomy,"
same,Taste,[2]; [14],sweet
"C[C@@H](O)[C@H](N)C(=O)O [11.91 mg Thr, Threonine]",Color,[2]; [8],Very Slightly
same,Smell,[2]; [8],"Vanilla, butter"
same,Taste,[2]; [8],Slightly sweet
